# According to patent US20260109721A1, “IONIZABLE CATIONIC LIPIDS INCORPORATING SILICON: SYNTHESIS AND LNP FORMULATION” (priority 2023, published 2026):
# Tests used:
# HepG2 cell line = test: In vitro toxicity study on HepG2 cell line (resazurin, viability and IC50); type: cell-based, human; details: resazurin; for Viability (%) at different lipid concentrations, mean: HepG2 cells, 48 h post-treatment, relative to ethanol vehicle controls; for IC50: Homo sapiens, lipid toxicity, HepG2, 48 h post-treatment, 6.25-800 μM, read-out: IC50 value, μM (on HepG2 cell)
# Method in brief: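 HepG2 cells (1000/well) were treated after overnight incubation with lipids at 6.25–800 μM for 48 h. Viability was read by resazurin fluorescence (530/580 nm) after 5 h at 37 °C, relative to ethanol vehicle controls. IC50 values came from concentration-response curves.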
# [1] = Encapsulation efficiency of loaded LNPs, RiboGreen RNA assay (Method A); type: physicochemical; details: encapsulation efficiency of mRNA-loaded LNP, Method A, RiboGreen
# Protocol: (§1) The synthesized lipids were tested in term of in vitro transfection efficacy and toxicity on HeLa cells. In order to perform the mentioned biological tests, appropriate LNPs had to be formulated from the synthesized lipids. The formulation technique was different in Method A and B. The particle size, polydispersity index (PDI) and zeta potential of resulting LNPs were determined by means of Dynamic Light Scattering technique (DLS). Prior to biological testing the encapsulation efficiency (EE) of the loaded LNPs was determined by using RiboGreen RNA assay. In case of Method A Luc mRNA while in case of Method B GFP mRNA was transfected into the cells. In parallel with the transfection experiments, toxicity of the investigated LNPs was determined, in case of Method A resazurin assay while in case of Method B MTT assay was used. Additionally, the toxicity of the lipids was investigated on HepG2 cells and IC50 values were determined.
# • 1. Preparation of sample stock solutions: In the top row of the 96-well plate (Row A in the plate), add 297 μL of TE buffer pH 7.4 (see Table 1) to a single well for each sample plus a single well for a PBS blank using a multichannel pipette.
# • 2. Add 3 μL of sample (at 0.5 mg/ml) to these wells for a final volume of 300 μL. Add 3 μL of PBS to the blank well. Pipette to mix. This is your stock solution for each sample. The final RNA concentration of these stock solutions should be approximately 4-7 μg/mL. • 3. mRNA-LNP sample setup: • a. Add 50 μL of TE buffer pH 7.5 to the two wells directly below each sample (Rows B and C in the plate). • b. Add 50 μL of sample stock solution from Row A into the wells in Rows B and C (this assay is run in duplicate. All liquid handling should be done using a multichannel pipette). • c. Add 50 μL of Triton buffer to the wells in Rows D and E (in the plate) below each sample. • d. Add 50 μL of sample stock solution from Row A into the wells in Rows D and E. • 4. RiboGreen RNA standard curve setup: Dilute the RNA standard to produce an RNA stock at a final concentration of 20 μg/mL in TE buffer pH 7.4. The final volume should be 150 μL. Set up a standard curve (in duplicate) as using the RNA stock (20 μg/mL siRNA), TE buffer pH 7.5, and Triton X-100 buffer according the Table 2 and Table 3 below.
# • 5. Once samples and standard curve are plated, incubate the plate at 37° C. for 10 min to lyse mRNA-LNP in the presence of Triton X-100 buffer. • 6. Meanwhile, prepare RiboGreen Solution: Sum the total number of sample wells and standard curve wells. Add three to this number, and multiply the total by 100. This is the total volume, in μL, of RiboGreen Solution needed for this assay. In a 15 mL RNAse-free Falcon tube, dilute the RiboGreen Reagent 1:100 into TE buffer pH 7.5 to the total volume calculated. • 7. Addition of RiboGreen Solution and sample readings: Remove a 96-well plate from 37° C. incubator; let it cool to room temperature as RiboGreen binding is somewhat temperature dependent. Add 100 μL of RiboGreen Solution to each well. Pop any air bubbles with a needle. Read using fluorescent plate reader (excitation=480, emission=525). • 8. Sample analysis: Use the data generated by the RiboGreen standard curve to calculate the concentration of mRNA. Transfection Efficiency with Luciferase-mRNA (Method A)
# HeLa cells = test: Cell viability assessment with resazurin assay (Method A); type: cell-based; details: human
# Protocol: as §1
# This protocol is used to determine the metabolic activity of cells as a measure for cell viability after exposure to potentially toxic substances. Resazurin is converted in mitochondria by reduction to resorufin, which has a much higher fluorescence at ˜600 nm compared to unconverted resazurin. A lower amount/percentage of conversion is correlated with reduced cellular metabolism and indirectly to cellular death and toxicity. Care must be taken with interpretation of the read-out, as 50% reduction in resazurin conversion may mean 50% reduction of cellular metabolism of 100% alive cells, or 50% of cells dead, and any combination in between.
# • 1. Prepare 0.25 mg/ml stock solution resazurin in fresh cell culture medium. Resazurin is auto-reducing over time in solution, especially in medium, and fresh stocks should be prepared every 2-3 days. Stocks should be stored at 4° C. and protected from light. For HeLa cells, DMEM/F12 with 10% FCS is used. • 2. Dilute stock solution 10× in fresh cell culture medium to 0.025 mg/ml->ready for application on cells. For HeLa cells, DMEM/F12 with 10% FCS is used. • 3. Collect 96-well plate and replace cell-culture spent medium with 100 μl per well resazurin solution. Add some resazurin solution for background measurement in wells not containing cells. • 4. Incubate for 50 minutes in incubator at 37° C., 5% CO2, 95% RH. • 5. Transfer resazurin solution to a fresh 96- or 384-well plate. • 6. Measure in plate reader using 540/25 nm (excitation) and 610/40 nm (emission) using standard settings (PTM low/OD-1.0). • 7. Subtract the average background measurement from all samples. Set the average of the negative controls (well receiving OptiMEM only during transfection) to 100% and express all values as percentage of the control activity. Typically, at lower levels of treatment, elevation of metabolic activity is shown, whereas for toxic substances, at toxic concentrations sigmoidal curves can be obtained, with lower activity indicating higher toxicity.
structure (smiles),measurement,setting,value
"CCCCC/C=C\C/C=C\CCCCCCCCOC(CCCCCCC/C=C\C/C=C\CCCCC)O[Si](C)(C)OCCCCCCN(CCO)CCO (stereo not drawn) [Example 48, (23Z,26Z)-13-((8Z,11Z)-heptadeca-8,11-dien-1-yl)-3-(2-hydroxyethyl)-11,11-dimethyl-10,12,14-trioxa-3-aza-11-siladotriaconta-23,26-dien-1-ol]","Viability (%) at different lipid concentrations, mean",HepG2 cell line; 6.25 μM lipid,97.4%
same,"Viability (%) at different lipid concentrations, mean",HepG2 cell line; 12.5 μM lipid,102.2%
same,"Viability (%) at different lipid concentrations, mean",HepG2 cell line; 25 μM lipid,95.7%
same,"Viability (%) at different lipid concentrations, mean",HepG2 cell line; 50 μM lipid,97.8%
same,"Viability (%) at different lipid concentrations, mean",HepG2 cell line; 100 μM lipid,99.6%
same,"Viability (%) at different lipid concentrations, mean",HepG2 cell line; 200 μM lipid,101.5%
same,"Viability (%) at different lipid concentrations, mean",HepG2 cell line; 400 μM lipid,98.4%
same,"Viability (%) at different lipid concentrations, mean",HepG2 cell line; 800 μM lipid,68.3%
same,IC50,HepG2 cell line,> 800 µM
same,EE (%),[1],85%
same,"Cell Viability % (Average metabolic rate over all doses, Resazurin)",HeLa cells,99%
"CCCCCCCCCCCCCCCCOC(CCCCCCCCCCCCCCC)O[Si](C)(C)OCCCCCCN(CCO)CCO (stereo not drawn) [Example 49, 3-(2-hydroxyethyl)-11,11-dimethyl-13-pentadecyl-10,12,14-trioxa-3-aza-11-silatriacontan-1-ol]","Viability (%) at different lipid concentrations, mean",HepG2 cell line; 6.25 μM lipid,101.6%
same,"Viability (%) at different lipid concentrations, mean",HepG2 cell line; 12.5 μM lipid,100.3%
same,"Viability (%) at different lipid concentrations, mean",HepG2 cell line; 25 μM lipid,100.4%
same,"Viability (%) at different lipid concentrations, mean",HepG2 cell line; 50 μM lipid,101.0%
same,"Viability (%) at different lipid concentrations, mean",HepG2 cell line; 100 μM lipid,106.4%
same,"Viability (%) at different lipid concentrations, mean",HepG2 cell line; 200 μM lipid,118.4%
same,"Viability (%) at different lipid concentrations, mean",HepG2 cell line; 400 μM lipid,112.6%
same,"Viability (%) at different lipid concentrations, mean",HepG2 cell line; 800 μM lipid,103.0%
same,IC50,HepG2 cell line,> 800 µM
same,EE (%),[1],84%
same,"Cell Viability % (Average metabolic rate over all doses, Resazurin)",HeLa cells,93%
"CCCCCCCC/C=C\CCCCCCCC(OCC(CCCCCC)CCCCCCCC)O[Si](C)(C)OCCCCCCN(CCO)CCO (stereo not drawn) [Example 50, (Z)-13-(heptadec-8-en-1-yl)-16-hexyl-3-(2-hydroxyethyl)-11,11-dimethyl-10,12,14-trioxa-3-aza-11-silatetracosan-1-ol]","Viability (%) at different lipid concentrations, mean",HepG2 cell line; 6.25 μM lipid,101.0%
same,"Viability (%) at different lipid concentrations, mean",HepG2 cell line; 12.5 μM lipid,97.6%
same,"Viability (%) at different lipid concentrations, mean",HepG2 cell line; 25 μM lipid,99.0%
same,"Viability (%) at different lipid concentrations, mean",HepG2 cell line; 50 μM lipid,97.9%
same,"Viability (%) at different lipid concentrations, mean",HepG2 cell line; 100 μM lipid,96.0%
same,"Viability (%) at different lipid concentrations, mean",HepG2 cell line; 200 μM lipid,100.0%
same,"Viability (%) at different lipid concentrations, mean",HepG2 cell line; 400 μM lipid,96.5%
same,"Viability (%) at different lipid concentrations, mean",HepG2 cell line; 800 μM lipid,86.8%
same,IC50,HepG2 cell line,> 800 µM
same,EE (%),[1],86%
same,"Cell Viability % (Average metabolic rate over all doses, Resazurin)",HeLa cells,98%
"CCCCCCCC/C=C\CCCCCCCCOC(CC[C@@H](C)C1CCC2C3CCC4C[C@H](OC)CC[C@]4(C)C3CC[C@@]21C)O[Si](C)(C)OCCCCCCN(CCO)CCO (stereo partly drawn) [Example 51, (Z)-3-(2-hydroxyethyl)-13-((3R)-3-((3R,10S,13R)-3-methoxy-10,13-dimethylhexadecahydro-1H-cyclopenta[a]phenanthren-17-yl)butyl)-11,11-dimethyl-10,12,14-trioxa-3-aza-11-siladotriacont-23-en-1-ol]","Viability (%) at different lipid concentrations, mean",HepG2 cell line; 6.25 μM lipid,98.6%
same,"Viability (%) at different lipid concentrations, mean",HepG2 cell line; 12.5 μM lipid,94.4%
same,"Viability (%) at different lipid concentrations, mean",HepG2 cell line; 25 μM lipid,96.3%
same,"Viability (%) at different lipid concentrations, mean",HepG2 cell line; 50 μM lipid,100.0%
same,"Viability (%) at different lipid concentrations, mean",HepG2 cell line; 100 μM lipid,109.9%
same,"Viability (%) at different lipid concentrations, mean",HepG2 cell line; 200 μM lipid,114.9%
same,"Viability (%) at different lipid concentrations, mean",HepG2 cell line; 400 μM lipid,102.9%
same,"Viability (%) at different lipid concentrations, mean",HepG2 cell line; 800 μM lipid,98.6%
same,IC50,HepG2 cell line,> 800 µM
same,EE (%),[1],89%
same,"Cell Viability % (Average metabolic rate over all doses, Resazurin)",HeLa cells,92%
"CCCCC/C=C\C/C=C\CCCCCCCCOC(CC[C@@H](C)C1CCC2C3CCC4C[C@H](OC)CC[C@]4(C)C3CC[C@@]21C)O[Si](C)(C)OCCCCCCN(CCO)CCO (stereo partly drawn) [Example 52, (23Z,26Z)-3-(2-hydroxyethyl)-13-((3R)-3-((3R,10S,13R)-3-methoxy-10,13-dimethylhexadecahydro-1H-cyclopenta[a]phenanthren-17-yl)butyl)-11,11-dimethyl-10,12,14-trioxa-3-aza-11-siladotriaconta-23,26-dien-1-ol]","Viability (%) at different lipid concentrations, mean",HepG2 cell line; 6.25 μM lipid,101.2%
same,"Viability (%) at different lipid concentrations, mean",HepG2 cell line; 12.5 μM lipid,101.1%
same,"Viability (%) at different lipid concentrations, mean",HepG2 cell line; 25 μM lipid,104.2%
same,"Viability (%) at different lipid concentrations, mean",HepG2 cell line; 50 μM lipid,120.8%
same,"Viability (%) at different lipid concentrations, mean",HepG2 cell line; 100 μM lipid,112.2%
same,"Viability (%) at different lipid concentrations, mean",HepG2 cell line; 200 μM lipid,76.7%
same,"Viability (%) at different lipid concentrations, mean",HepG2 cell line; 400 μM lipid,5.3%
same,"Viability (%) at different lipid concentrations, mean",HepG2 cell line; 800 μM lipid,−0.7%
same,IC50,HepG2 cell line,233 µM
same,EE (%),[1],86%
same,"Cell Viability % (Average metabolic rate over all doses, Resazurin)",HeLa cells,95%
"CCCCC/C=C\C/C=C\CCCCCCCCOC(CCCCCCC/C=C\C/C=C\CCCCC)O[Si](C)(C)OCCCCCCN1CCOCC1 (stereo not drawn) [Example 55, 4-((20Z,23Z)-10-((8Z,11Z)-heptadeca-8,11-dien-1-yl)-8,8-dimethyl-7,9,11-trioxa-8-silanonacosa-20,23-dien-1-yl)morpholine]","Viability (%) at different lipid concentrations, mean",HepG2 cell line; 6.25 μM lipid,91.7%
same,"Viability (%) at different lipid concentrations, mean",HepG2 cell line; 12.5 μM lipid,90.4%
same,"Viability (%) at different lipid concentrations, mean",HepG2 cell line; 25 μM lipid,92.4%
same,"Viability (%) at different lipid concentrations, mean",HepG2 cell line; 50 μM lipid,90.9%
same,"Viability (%) at different lipid concentrations, mean",HepG2 cell line; 100 μM lipid,94.1%
same,"Viability (%) at different lipid concentrations, mean",HepG2 cell line; 200 μM lipid,90.7%
same,"Viability (%) at different lipid concentrations, mean",HepG2 cell line; 400 μM lipid,7.9%
same,"Viability (%) at different lipid concentrations, mean",HepG2 cell line; 800 μM lipid,1.9%
same,IC50,HepG2 cell line,316 µM
same,EE (%),[1],21%
same,"Cell Viability % (Average metabolic rate over all doses, Resazurin)",HeLa cells,91%
